Laboratory results as given in ChEMBL document CHEMBL3885861, “Open TG-GATES”.

Organism: Rattus norvegicus
Experiment: Open TG-GATES - Regimen: Daily Repeat
Assay type: toxicity, organism-based, Sprague-Dawley
Design: regimen Daily Repeat, gender Male, age 6 weeks
Details: in vivo, po, route gavage; for KIDNEY_L / KIDNEY_R / KIDNEY_TOTAL: tissue Kidney; for ALP / ALT / AST / BUN / CRE / DBIL / IP / K / LDH / Na / PL / RALB / TBIL / TC / TG / TP / gamma-GTP / Ca: tissue Plasma; for LIVER: tissue Liver
[1] = 40 mg/kg, 72 h, tissue Blood, dose level Low, time 3 day
[2] = 40 mg/kg, 72 h, dose level Low, time 3 day
[3] = 40 mg/kg, […], dose level Low, time 7 day
[4] = 40 mg/kg, […], dose level Low, time 14 day
[5] = 40 mg/kg, […], dose level Low, time 28 day
[6] = 40 mg/kg, […], tissue Blood, dose level Low, time 7 day
[7] = 40 mg/kg, […], tissue Blood, dose level Low, time 14 day
[8] = 40 mg/kg, […], tissue Blood, dose level Low, time 28 day
[9] = 120 mg/kg, 72 h, tissue Blood, dose level Middle, time 3 day

CCC(C)(C)C(=O)O[C@H]1C[C@@H](C)C=C2C=C[C@H](C)[C@H](CC[C@@H]3C[C@@H](O)CC(=O)O3)[C@H]21 [SIMVASTATIN]
Fbg [1]: 222.8 mg/dL | Hb [1]: 13.6 g/dL | Ht [1]: 41.1% | Lym [1]: 77% | MCHC [1]: 33.2% | Mono [1]: 8.6% | Neu [1]: 13.6% | Plat [1]: 125.7 x10_4/uL | RBC [1]: 639.6 x10_4/ul | Ret [1]: 5.1% | WBC [1]: 97.1 x10_2/uL | KIDNEY_L [2]: 0.9 g | KIDNEY_R [2]: 1 g | KIDNEY_TOTAL [2]: 1.9 g | ALP [2]: 959.2 IU/L | ALT [2]: 40.6 IU/L | AST [2]: 67 IU/L | BUN [2]: 18 mg/dL | CRE [2]: 0.5 mg/dL | DBIL [2]: 0.004 mg/dL | IP [2]: 7.1 mg/dL | K [2]: 4.4 meq/L | LDH [2]: 102.4 IU/L | Na [2]: 140 meq/L | PL [2]: 148.4 mg/dL | RALB [2]: 3.8 g/dL | TBIL [2]: 0.3 mg/dL | TC [2]: 88.2 mg/dL | TG [2]: 69.6 mg/dL | TP [2]: 5.6 g/dL | gamma-GTP [2]: 1.8 IU/L | TERMINAL_BW [3]: 254.5 g | TERMINAL_BW [4]: 301.6 g | TERMINAL_BW [5]: 380.4 g | Bas [6]: 0% | Eos [6]: 0.6% | Fbg [6]: 232.4 mg/dL | Hb [6]: 13.3 g/dL | Ht [6]: 39.9% | Lym [6]: 83% | MCHC [6]: 33.2% | Mono [6]: 6% | PT [6]: 11 s | Plat [6]: 120.4 x10_4/uL | RBC [6]: 619.6 x10_4/ul | Ret [6]: 4.2% | WBC [6]: 123 x10_2/uL | Bas [7]: 0% | Eos [7]: 0.6% | Fbg [7]: 219.4 mg/dL | Hb [7]: 13.9 g/dL | Ht [7]: 41.7% | Lym [7]: 81.6% | MCHC [7]: 33.3% | Mono [7]: 5.6% | Neu [7]: 12.4% | Plat [7]: 119.7 x10_4/uL | RBC [7]: 675.8 x10_4/ul | Ret [7]: 5.3% | WBC [7]: 121.7 x10_2/uL | Bas [8]: 0% | Eos [8]: 1.2% | Fbg [8]: 244.4 mg/dL | Hb [8]: 14.8 g/dL | Ht [8]: 44.7% | Lym [8]: 81% | MCHC [8]: 33% | MCV [8]: 58.3 fL | Mono [8]: 6.4% | Neu [8]: 11.6% | Plat [8]: 111 x10_4/uL | RBC [8]: 766.6 x10_4/ul | Ret [8]: 2.3% | WBC [8]: 112.3 x10_2/uL | KIDNEY_L [3]: 1.1 g | KIDNEY_R [3]: 1.1 g | KIDNEY_TOTAL [3]: 2.2 g | KIDNEY_L [4]: 1.2 g | KIDNEY_R [4]: 1.2 g | KIDNEY_TOTAL [4]: 2.4 g | KIDNEY_L [5]: 1.4 g | KIDNEY_R [5]: 1.4 g | KIDNEY_TOTAL [5]: 2.8 g | LIVER [3]: 12.5 g | LIVER [4]: 13.6 g | LIVER [5]: 16.5 g | ALP [3]: 877.6 IU/L | ALT [3]: 38.4 IU/L | AST [3]: 60.8 IU/L | BUN [3]: 20.6 mg/dL | CRE [3]: 0.6 mg/dL | Ca [3]: 11 mg/dL | DBIL [3]: 0 mg/dL | IP [3]: 6.9 mg/dL | K [3]: 4.9 meq/L | LDH [3]: 112.2 IU/L | Na [3]: 141.4 meq/L | PL [3]: 155 mg/dL | RALB [3]: 3.8 g/dL | TBIL [3]: 0.3 mg/dL | TG [3]: 99.2 mg/dL | TP [3]: 5.9 g/dL | gamma-GTP [3]: 1.8 IU/L | ALP [4]: 819.8 IU/L | ALT [4]: 37 IU/L | AST [4]: 61.4 IU/L | BUN [4]: 20 mg/dL | CRE [4]: 0.6 mg/dL | Ca [4]: 10.8 mg/dL | DBIL [4]: 0.006 mg/dL | IP [4]: 7.1 mg/dL | K [4]: 4.7 meq/L | LDH [4]: 82 IU/L | Na [4]: 140.8 meq/L | PL [4]: 145.6 mg/dL | RALB [4]: 3.9 g/dL | TBIL [4]: 0.3 mg/dL | TC [4]: 76.6 mg/dL | TG [4]: 118.4 mg/dL | TP [4]: 5.9 g/dL | gamma-GTP [4]: 1.8 IU/L | ALP [5]: 751.6 IU/L | ALT [5]: 34.2 IU/L | AST [5]: 60.4 IU/L | BUN [5]: 20.6 mg/dL | CRE [5]: 0.7 mg/dL | DBIL [5]: 0.024 mg/dL | IP [5]: 6.8 mg/dL | K [5]: 4.3 meq/L | LDH [5]: 113.6 IU/L | Na [5]: 143.2 meq/L | PL [5]: 163 mg/dL | RALB [5]: 4 g/dL | TBIL [5]: 0.3 mg/dL | TC [5]: 78.2 mg/dL | TG [5]: 165.2 mg/dL | TP [5]: 6.2 g/dL | gamma-GTP [5]: 1.4 IU/L | TERMINAL_BW (120 mg/kg, 72 h, dose level Middle, time 3 day): 215.2 g | Bas [9]: 0% | Eos [9]: 1% | Fbg [9]: 217.2 mg/dL | Hb [9]: 13.6 g/dL
